Data on 16 molecules can be found in patent US20230303570A1, “KINASE INHIBITORS AND USES THEREOF” (ABM Therapeutics Corporation, priority 2020, published 2023).

One data set has as its target HPK1 (MAP4K1) (Homo sapiens, UniProt Q92918). Put plainly: HPK1 (MAP4K1) kinase Lantha screen assay. It counts as biochemical. An outline of the steps:
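Recombinant MAP4K1 preincubated 10 min with compound (6-point dilution, duplicates) in 50 mM HEPES pH 7.5, 10 mM MgCl2, then reacted with Fluorescein-PKC substrate and ATP for 90 min at room temperature. Antibody detection solution stopped reaction; after 60 min, TR-FRET read at ex 340 nm, em 520/495 nm.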

For the next data set, the target named is c-Kit (Homo sapiens, UniProt P10721). Put plainly: cKit kinase mobility shift assay. In kind it is biochemical. How it is done: (§1) The effect of the compounds on the activity of cKit, RET and AXL kinases were assessed by Mobility shift assay. • 1. 1× kinase base buffer and stop buffer for testing kinases were prepared • 1-1) 1× Kinase base buffer (50 mM HEPES, pH 7.5, 0.01% Triton X-100) • 1-2) Stop buffer (100 mM HEPES, pH 7.5, 0.015% Brij-35, 0.2% Coating Reagent #3, 50 mM EDTA) • 2. Compound and assay plate preparation: the compound was diluted to 50× of the final desired highest inhibitor concentration in reaction by 100% DMSO. 100 μl of this compound dilution was transferred to a well in a 96-well plate. For example, if the highest desired concentration was 5 μM, then 250 μM of compound DMSO solution was prepared in this step. For all compounds, the compound was serially diluted by transferring 10 μl to 70 μl of 100 DMSO in the next well and so forth for a total of 5 concentrations. 100 μl of 100% DMSO was added to two empty wells for no compound control and no enzyme control in the same 96-well plate. The plate was labeled as source plate. The intermediate plate was prepared by transferring 10 μl of compound from source plate to a new 96-well plate as the intermediate plate, adding 90 μl of 1× kinase buffer to each well of the intermediate plate, mixing the compounds in intermediate plate for 10 min on shaker. 5 μl of each well from the 96-well intermediate plate were transferred to a 384-well plate in duplicates. For example, A1 of the 96-well plate was transferred to A1 and A2 of the 384-well plate. A2 of the 96-well plate was transferred to A3 and A4 of the 384-well plate, and so on. • 4. Kinase reaction: The assay plate already contained 5 μl of compound in 10% DMSO. A 2.5× enzyme solution was prepared by adding kinases (cKit, RET, or AXL) and DTT in 1× kinase base buffer. 2.5× enzyme solution was transferred to the assay plate (by adding 10 μl of 2.5× enzyme solution to each well of the 384-well assay plate). The plate was incubated at room temperature for 10 min. 2.5× peptide solution was prepared by adding FAM-labeled peptide, ATP, MgCl2 in the 1× kinase base buffer. 2.5× peptide solution was added to the assay plate by adding 10 μl of 2.5× peptide solution to each well of the 384-well assay plate. The plate was incubated at 28° C. for the specified period of time. 25 μl of stop buffer was added to stop reaction. Data was collected on Caliper.
Sequence of c-Kit (P10721 26-976): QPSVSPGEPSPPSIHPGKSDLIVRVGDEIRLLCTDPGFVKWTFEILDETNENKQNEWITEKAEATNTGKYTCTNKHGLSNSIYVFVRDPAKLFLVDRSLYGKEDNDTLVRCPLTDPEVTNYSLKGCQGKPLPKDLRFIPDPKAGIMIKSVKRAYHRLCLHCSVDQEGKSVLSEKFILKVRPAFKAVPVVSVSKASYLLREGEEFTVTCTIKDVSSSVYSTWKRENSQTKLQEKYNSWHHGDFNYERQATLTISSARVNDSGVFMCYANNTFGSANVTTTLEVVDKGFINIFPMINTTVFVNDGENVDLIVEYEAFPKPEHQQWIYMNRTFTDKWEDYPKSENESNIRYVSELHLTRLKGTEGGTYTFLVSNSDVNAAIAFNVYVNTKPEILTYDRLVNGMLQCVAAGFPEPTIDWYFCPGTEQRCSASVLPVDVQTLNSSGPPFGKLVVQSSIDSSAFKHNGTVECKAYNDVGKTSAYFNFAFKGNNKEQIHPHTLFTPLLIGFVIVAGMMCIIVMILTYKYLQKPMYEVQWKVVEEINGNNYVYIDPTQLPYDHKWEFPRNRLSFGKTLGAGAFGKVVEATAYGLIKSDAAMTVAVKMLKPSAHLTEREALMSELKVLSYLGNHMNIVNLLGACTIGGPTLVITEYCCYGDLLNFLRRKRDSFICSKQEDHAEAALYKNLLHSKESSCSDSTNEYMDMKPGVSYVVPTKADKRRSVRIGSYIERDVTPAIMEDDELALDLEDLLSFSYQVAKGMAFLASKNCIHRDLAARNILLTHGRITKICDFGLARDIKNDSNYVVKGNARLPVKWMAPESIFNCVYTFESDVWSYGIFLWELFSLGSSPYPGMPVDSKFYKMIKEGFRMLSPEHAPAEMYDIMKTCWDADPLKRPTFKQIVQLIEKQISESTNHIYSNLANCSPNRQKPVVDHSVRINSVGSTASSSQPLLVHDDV

A short description of data set [1]: Mouse pharmacokinetics study (intravenous and oral). In kind it is in vivo. The conditions noted are these: CD-1 mice. From the text:
The test articles were formulated in […] Hydroxypropyl-beta-cyclodextrin, either as a clear solution or fine suspension.

The target of a further data set is T1, Axl (Homo sapiens, UniProt P30530).
T1 sequence (P30530 26-894): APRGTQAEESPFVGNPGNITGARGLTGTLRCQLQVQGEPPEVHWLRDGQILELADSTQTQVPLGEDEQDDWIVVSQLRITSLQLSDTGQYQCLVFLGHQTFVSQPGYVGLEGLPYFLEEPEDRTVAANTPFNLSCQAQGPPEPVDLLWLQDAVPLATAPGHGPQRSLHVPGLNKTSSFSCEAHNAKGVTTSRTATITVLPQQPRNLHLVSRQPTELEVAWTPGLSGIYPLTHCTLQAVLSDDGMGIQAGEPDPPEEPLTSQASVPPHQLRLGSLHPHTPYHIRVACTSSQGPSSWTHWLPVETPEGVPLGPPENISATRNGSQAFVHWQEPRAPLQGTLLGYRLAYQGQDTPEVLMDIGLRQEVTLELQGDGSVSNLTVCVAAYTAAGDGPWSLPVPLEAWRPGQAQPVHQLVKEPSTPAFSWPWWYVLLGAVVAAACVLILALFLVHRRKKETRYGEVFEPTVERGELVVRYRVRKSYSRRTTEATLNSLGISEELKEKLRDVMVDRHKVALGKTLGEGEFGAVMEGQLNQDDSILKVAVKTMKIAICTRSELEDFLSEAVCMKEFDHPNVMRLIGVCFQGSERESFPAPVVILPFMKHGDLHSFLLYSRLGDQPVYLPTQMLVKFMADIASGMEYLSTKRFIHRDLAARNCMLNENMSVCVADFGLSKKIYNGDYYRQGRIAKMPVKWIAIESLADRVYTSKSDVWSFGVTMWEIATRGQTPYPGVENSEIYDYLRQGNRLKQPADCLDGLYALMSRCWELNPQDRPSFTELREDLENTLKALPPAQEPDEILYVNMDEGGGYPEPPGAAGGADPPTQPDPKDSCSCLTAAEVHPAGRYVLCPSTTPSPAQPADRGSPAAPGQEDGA
Description: AXL kinase mobility shift assay. It counts as biochemical. How it is done:
as §1

Sequence of HPK1 (MAP4K1) (Q92918 whole entry, species assumed): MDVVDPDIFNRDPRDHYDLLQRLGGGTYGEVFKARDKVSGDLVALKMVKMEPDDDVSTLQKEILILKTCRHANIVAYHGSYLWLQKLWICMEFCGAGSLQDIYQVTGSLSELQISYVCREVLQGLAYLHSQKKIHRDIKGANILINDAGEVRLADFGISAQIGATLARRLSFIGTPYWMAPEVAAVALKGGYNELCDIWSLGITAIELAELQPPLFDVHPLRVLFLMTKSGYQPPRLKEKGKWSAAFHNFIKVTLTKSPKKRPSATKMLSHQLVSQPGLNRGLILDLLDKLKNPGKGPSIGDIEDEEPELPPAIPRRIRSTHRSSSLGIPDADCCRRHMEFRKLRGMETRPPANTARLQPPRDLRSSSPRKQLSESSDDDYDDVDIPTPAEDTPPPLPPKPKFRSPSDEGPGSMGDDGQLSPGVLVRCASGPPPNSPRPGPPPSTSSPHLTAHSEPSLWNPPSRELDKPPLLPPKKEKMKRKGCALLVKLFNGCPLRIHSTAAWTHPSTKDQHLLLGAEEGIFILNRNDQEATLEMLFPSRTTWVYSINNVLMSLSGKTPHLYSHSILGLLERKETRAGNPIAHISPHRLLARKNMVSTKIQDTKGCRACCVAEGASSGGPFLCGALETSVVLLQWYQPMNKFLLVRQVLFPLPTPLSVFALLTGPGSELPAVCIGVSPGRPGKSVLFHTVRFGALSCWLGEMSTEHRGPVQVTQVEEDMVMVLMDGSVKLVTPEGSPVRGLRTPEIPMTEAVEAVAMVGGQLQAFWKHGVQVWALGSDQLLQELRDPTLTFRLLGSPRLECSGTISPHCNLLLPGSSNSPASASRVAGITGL

As to `Cc1cc(F)c(NC(=O)c2cc(C(F)(F)F)ccn2)cc1C1=Cc2cnc(NC3COC3)nc2N2CCN=C12` [Compound 178, N-(2-fluoro-4-methyl-5-(2-(oxetan-3-ylamino)-8,9-dihydroimidazo[1′,2′:1,6]pyrido[2,3-d]pyrimidin-6-yl)phenyl)-4-(trifluoromethyl)picolinamide], the half-maximal inhibitory concentration (IC50) on HPK1 (MAP4K1) was less than 0.1 µM. Besides, the IC50 at c-Kit lay in the range of 0.1 to 10 µM. This molecule showed a F in data set [1] (PO 25 mg/kg) of 66.7 ± 14.3%. In data set [1] (mouse, plasma, IV 5 mg/kg), this molecule gave a Vd of 4.06 ± 0.37 L/kg and a half-life of 2.76 ± 0.22 h. In addition, the clearance in data set [1] (mouse, plasma, IV 5 mg/kg, read-out: Clp) was found to be 17 ± 0.3 mL/min/kg. Also, in data set [1] (mouse, plasma, PO 25 mg/kg), the area under the curve (AUC) was found to be 16300 ± 3490 ng·h/mL, the peak level (Cmax) was 2560 ± 505 ng/mL and the time to peak (Tmax) turned out to be 2 h.

Consider `Cc1ccc(NC(=O)c2cc(C(C)(C)F)ccn2)cc1C1=Cc2cnc(Nc3cnn(C)c3)nc2N2CCN=C12` [Compound 196, 4-(2-fluoropropan-2-yl)-N-(4-methyl-3-(2-((1-methyl-1H-pyrazol-4-yl)amino)-8,9-dihydroimidazo[1′,2′:1,6]pyrido[2,3-d]pyrimidin-6-yl)phenyl)picolinamide], for which the IC50 on c-Kit was less than 0.1 µM. Besides, in data set [1] (mouse, plasma, PO 25 mg/kg), the AUC was found to be 11300 ± 3010 ng·h/mL, the Cmax was determined as 1060 ± 108 ng/mL and the Tmax amounted to 1.33 ± 0.58 h.

In the case of `Cc1ccc(Nc2ncc3c(n2)N2CCN=C2C(c2cc(NC(=O)c4cn(C(C)C)c(=O)n(-c5ccc(F)cc5)c4=O)ccc2C)=C3)cn1` [Compound 266, 3-(4-fluorophenyl)-1-isopropyl-N-(4-methyl-3-(2-((6-methylpyridin-3-yl)amino)-8,9-dihydroimidazo[1′,2′:1,6]pyrido[2,3-d]pyrimidin-6-yl)phenyl)-2,4-dioxo-1,2,3,4-tetrahydropyrimidine-5-carboxamide], the half-maximal inhibitory concentration (IC50) at Axl is more than 10 µM.

Turning to `CNc1ncc2c(n1)N1CCN=C1C(c1ccc(C(=O)Nc3cc(C(F)(F)F)ccn3)c(F)c1)=C2` [Compound 270, 2-fluoro-4-(2-(methylamino)-8,9-dihydroimidazo[1′,2′:1,6]pyrido[2,3-d]pyrimidin-6-yl)-N-(4-(trifluoromethyl)pyridin-2-yl)benzamide], the IC50 on Axl is more than 10 µM.

On to `CNc1ncc2c(n1)N1CCN=C1C(c1ccc(C(=O)Nc3cc(C(F)(F)F)ccn3)cc1)=C2` [Compound 273, 4-(2-(methylamino)-8,9-dihydroimidazo[1′,2′:1,6]pyrido[2,3-d]pyrimidin-6-yl)-N-(4-(trifluoromethyl)pyridin-2-yl)benzamide], for which the IC50 on Axl was in the range of 0.1 to 10 µM.

For `CNc1ncc2c(n1)N1CCN=C1C(c1ccc(C(=O)Nc3ccccc3Cl)cc1)=C2` [Compound 275, N-(2-chlorophenyl)-4-(2-(methylamino)-8,9-dihydroimidazo[1′,2′:1,6]pyrido[2,3-d]pyrimidin-6-yl)benzamide], on Axl, the 50% inhibitory concentration (IC50) lay within 0.1 to 10 µM.

Consider `CNc1ncc2c(n1)N1CCN=C1C(c1cc(NS(=O)(=O)c3ccccc3Cl)c(F)cc1C)=C2` [Compound 286, 2-chloro-N-(2-fluoro-4-methyl-5-(2-(methylamino)-8,9-dihydroimidazo[1′,2′:1,6]pyrido[2,3-d]pyrimidin-6-yl)phenyl)benzenesulfonamide], for which the IC50 on Axl was more than 10 µM.

Regarding `CNc1ncc2c(n1)N1CCN=C1C(c1cc(NS(=O)(=O)c3ccccn3)c(F)cc1C)=C2` [Compound 292, N-(2-fluoro-4-methyl-5-(2-(methylamino)-8,9-dihydroimidazo[1′,2′:1,6]pyrido[2,3-d]pyrimidin-6-yl)phenyl)pyridine-2-sulfonamide], at Axl, the IC50 is more than 10 µM.

As for `CNc1ncc2c(n1)N1CCN=C1C(c1cc(NS(=O)(=O)Cc3ccccc3)c(F)cc1C)=C2` [Compound 293, N-(2-fluoro-4-methyl-5-(2-(methylamino)-8,9-dihydroimidazo[1′,2′:1,6]pyrido[2,3-d]pyrimidin-6-yl)phenyl)-1-phenylmethanesulfonamide], the concentration for half-maximal inhibition (IC50) at Axl was more than 10 µM.

Consider `CNc1ncc2c(n1)N1CCN=C1C(c1c(C)ccc(NS(=O)(=O)c3c(Cl)cccc3Cl)c1F)=C2` [Compound 296, 2,6-dichloro-N-(2-fluoro-4-methyl-3-(2-(methylamino)-8,9-dihydroimidazo[1′,2′:1,6]pyrido[2,3-d]pyrimidin-6-yl)phenyl)benzenesulfonamide], for which the IC50 at Axl is more than 10 µM.

As for `CNc1ncc2c(n1)N1CCN=C1C(c1c(C)ccc(NS(=O)(=O)c3c(F)cccc3F)c1F)=C2` [Compound 297, 2,6-difluoro-N-(2-fluoro-4-methyl-3-(2-(methylamino)-8,9-dihydroimidazo[1′,2′:1,6]pyrido[2,3-d]pyrimidin-6-yl)phenyl)benzenesulfonamide], at Axl, the IC50 was more than 10 µM.

Regarding `CNc1ncc2c(n1)N1CCN=C1C(c1c(C)ccc(NS(=O)(=O)c3ccccc3C(F)(F)F)c1F)=C2` [Compound 298, N-(2-fluoro-4-methyl-3-(2-(methylamino)-8,9-dihydroimidazo[1′,2′:1,6]pyrido[2,3-d]pyrimidin-6-yl)phenyl)-2-(trifluoromethyl)benzenesulfonamide], the IC50 on Axl was more than 10 µM.

On to `CNc1ncc2c(n1)N1CCN=C1C(c1c(C)ccc(NS(=O)(=O)c3ccccc3OC(F)(F)F)c1F)=C2` [Compound 299, N-(2-fluoro-4-methyl-3-(2-(methylamino)-8,9-dihydroimidazo[1′,2′:1,6]pyrido[2,3-d]pyrimidin-6-yl)phenyl)-2-(trifluoromethoxy)benzenesulfonamide], for which the IC50 on Axl was more than 10 µM.

Take `Cc1ccc(NS(=O)(=O)c2cc(F)ccc2F)c(F)c1C1=Cc2cnc(NC3COC3)nc2N2CCN=C12` [Compound 302, 2,5-difluoro-N-(2-fluoro-4-methyl-3-(2-(oxetan-3-ylamino)-8,9-dihydroimidazo[1′,2′:1,6]pyrido[2,3-d]pyrimidin-6-yl)phenyl)benzenesulfonamide]: on Axl, the IC50 was more than 10 µM.

Regarding `Cc1ccc(NS(=O)(=O)c2ccccc2Cl)c(F)c1C1=Cc2cnc(NC3COC3)nc2N2CCN=C12` [Compound 303, 2-chloro-N-(2-fluoro-4-methyl-3-(2-(oxetan-3-ylamino)-8,9-dihydroimidazo[1′,2′:1,6]pyrido[2,3-d]pyrimidin-6-yl)phenyl)benzenesulfonamide], at Axl, the IC50 was more than 10 µM.

Regarding `CNc1ncc2c(n1)N1CCN=C1C(Oc1ccc(NC(=O)C3(C(=O)Nc4ccc(F)cc4)CC3)cc1)=C2` [Compound 345, N-(4-fluorophenyl)-N-(4-((2-(methylamino)-8,9-dihydroimidazo[1′,2′:1,6]pyrido[2,3-d]pyrimidin-6-yl)oxy)phenyl)cyclopropane-1,1-dicarboxamide], on Axl, the IC50 was 0.1 to 10 µM.

As a reminder, the IC50 is the concentration needed to halve the response being measured. What is called half-life is the time needed for the level to fall by half in the phase considered. A higher half-life goes with slow decline. One may read the AUC as the area under the concentration-time curve, a measure of exposure. A lower AUC goes with less exposure. As a reminder, the Cmax is the maximum level reached in the sampled fluid or tissue. The Tmax is the time from dosing to the highest level.
